The results in this text go back to PubChem BioAssay AID248 (DTP/NCI, 2004).

In the assay the test system is L1210 leukemia ip in BDF1 mice, survival T/C. Kind of assay: NCI In Vivo Anticancer Drug Screen. Data for tumor model L1210 Leukemia (intraperitoneal) in B6D2F1 (BDF1) mice. The note with it: endpoint: mean survival time, higher = longer survival. The essentials: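 Each compound was tested against a transplantable tumor grown in mice. The endpoint was survival, with treated animals benchmarked against vehicle controls as a simple ratio.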

Setting [1] is: dose: 100.0 mg/kg/injection, schedule: Q01DX001 (ip), vehicle: saline.
Setting [2] is: dose: 200.0 mg/kg/injection, schedule: Q01DX001 (ip), vehicle: saline.
[3] abbreviates: dose: 100.0 mg/kg/injection, schedule: Q01DX001 (ip), vehicle: saline with Tween-80.
[4] abbreviates: dose: 200.0 mg/kg/injection, schedule: Q01DX001 (ip), vehicle: saline with Tween-80.
Setting [5] is: dose: 400.0 mg/kg/injection, schedule: Q01DX001 (ip), vehicle: saline with Tween-80.

The structures appear in SMILES notation. Where “and” joins values, the source holds several entries; their conditions need not be identical. Equal values may be shown once. Toxic doses and inconclusive results are not listed.

Take `O=S(=O)(OCCCl)OCCCl`: the T/C was 100 % of control (dose: 25.0 mg/kg/injection, schedule: Q01DX010 (ip), vehicle: olive oil, sesame oil, peanut oil); 102 % of control (dose: 37.5 mg/kg/injection, schedule: Q01DX010 (ip), vehicle: olive oil, sesame oil, peanut oil); 97 % of control (dose: 50.0 mg/kg/injection, schedule: Q01DX010 (ip), vehicle: olive oil, sesame oil, peanut oil).

As for `ICc1cccc(CI)c1`, the T/C was 100 % of control (dose: 6.25 mg/kg/injection, schedule: Q01DX009 (ip), vehicle: carboxymethylcellulose (CMC)); 111 % of control (dose: 6.25 mg/kg/injection, schedule: Q04DX003 (ip), vehicle: carboxymethylcellulose (CMC)); 95 % of control (dose: 12.5 mg/kg/injection, schedule: Q01DX001 (ip), vehicle: other); 94 % of control (dose: 12.5 mg/kg/injection, schedule: Q01DX009 (ip), vehicle: carboxymethylcellulose (CMC)); 97 % of control (dose: 12.5 mg/kg/injection, schedule: Q04DX003 (ip), vehicle: carboxymethylcellulose (CMC)); 95 % of control (dose: 25.0 mg/kg/injection, schedule: Q01DX001 (ip), vehicle: other). Moreover, the T/C (dose: 25.0 mg/kg/injection, schedule: Q04DX003 (ip), vehicle: carboxymethylcellulose (CMC)) was 92 % of control.

As to `Cc1ccc(NC(=O)Oc2cc(C)c(Cl)c(C)c2)cc1`, the T/C runs as follows: (dose: 100.0 mg/kg/injection, schedule: Q01DX009 (ip), vehicle: Klucel (hydroxypropylcellulose) (HPC)) 94 % of control; (dose: 200.0 mg/kg/injection, schedule: Q01DX009 (ip), vehicle: Klucel (hydroxypropylcellulose) (HPC)) 97 % of control; (dose: 400.0 mg/kg/injection, schedule: Q01DX009 (ip), vehicle: Klucel (hydroxypropylcellulose) (HPC)) 96 % of control.

As for `CSc1nc(F)nc2c1ncn2C1OC(CO)C(O)C1O` (centres undefined), the T/C by setting is: under setting [1], 88 % of control; under setting [2], 100 % of control.

For the compound `Cc1ccc(/C=C/[N+](=O)[O-])cc1`, the T/C was 100 % of control (dose: 6.25 mg/kg/injection, schedule: Q01DX009 (ip), vehicle: saline sonified); 97 % of control (dose: 6.25 mg/kg/injection, schedule: Q04DX003 (ip), vehicle: Klucel (hydroxypropylcellulose) (HPC)); 101 % of control (dose: 12.5 mg/kg/injection, schedule: Q01DX009 (ip), vehicle: saline sonified); 97 % of control (dose: 12.5 mg/kg/injection, schedule: Q04DX003 (ip), vehicle: Klucel (hydroxypropylcellulose) (HPC)); 101 % of control (dose: 25.0 mg/kg/injection, schedule: Q01DX009 (ip), vehicle: saline sonified); 93 % of control (dose: 25.0 mg/kg/injection, schedule: Q04DX003 (ip), vehicle: Klucel (hydroxypropylcellulose) (HPC)).

As for `Cc1cccc(NC(=S)NCCc2ccccn2)c1`, the T/C (dose: 100.0 mg/kg/injection, schedule: Q04DX002 (ip), vehicle: saline with Tween-80) was 97 % of control and the T/C (dose: 200.0 mg/kg/injection, schedule: Q04DX002 (ip), vehicle: saline with Tween-80) is 97 % of control.

On to `COc1ccc(C(=O)c2ccc(OC)c(OC)c2C(=O)O)cc1`, for which the T/C is, setting by setting: (dose: 100.0 mg/kg/injection, schedule: Q04DX003 (ip), vehicle: saline) 106 % of control; (dose: 200.0 mg/kg/injection, schedule: Q04DX003 (ip), vehicle: saline) 114 % of control; (dose: 400.0 mg/kg/injection, schedule: Q04DX003 (ip), vehicle: saline) 103 % of control.

Turning to `CC1=Nc2ccccc2NC(C)C1C` (centres undefined), the T/C was 100 % of control (dose: 12.5 mg/kg/injection, schedule: Q01DX009 (ip), vehicle: Klucel (hydroxypropylcellulose) (HPC)); 96 % of control (dose: 25.0 mg/kg/injection, schedule: Q01DX009 (ip), vehicle: Klucel (hydroxypropylcellulose) (HPC)); 108 % of control (dose: 50.0 mg/kg/injection, schedule: Q01DX009 (ip), vehicle: Klucel (hydroxypropylcellulose) (HPC)); 91 % of control (dose: 100.0 mg/kg/injection, schedule: Q01DX009 (ip), vehicle: saline).

For `CCCCCCCC(=O)N(CCN(N=O)C(=O)CCCCCCC)N=O`, the T/C by setting is: under setting [1], 95 % of control; (dose: 400.0 mg/kg/injection, schedule: Q01DX001 (ip), vehicle: saline) 90 % of control.

Turning to `CC(C)(CSCC(C)(C)C(=O)O)C(=O)O`, the T/C is, setting by setting: (dose: 100.0 mg/kg/injection, schedule: Q04DX003 (ip), vehicle: Klucel (hydroxypropylcellulose) (HPC)) 104 % of control; (dose: 200.0 mg/kg/injection, schedule: Q04DX003 (ip), vehicle: Klucel (hydroxypropylcellulose) (HPC)) 94 % of control; (dose: 400.0 mg/kg/injection, schedule: Q04DX003 (ip), vehicle: Klucel (hydroxypropylcellulose) (HPC)) 91 % of control.

On to `Nc1nnnn1-c1ccc(O)cc1`, for which the T/C was 101 % of control under setting [3], 103 % of control under setting [4] and 99 % of control under setting [5].

Turning to `CC1(NC(=O)N(CCCl)N=O)CCCC1`, the T/C (dose: 16.0 mg/kg/injection, schedule: Q01DX001 (ip), vehicle: carboxymethylcellulose (CMC)) was 95 % of control; the T/C (dose: 31.0 mg/kg/injection, schedule: Q01DX001 (ip), vehicle: carboxymethylcellulose (CMC)) is 113 % of control; the T/C (dose: 62.0 mg/kg/injection, schedule: Q01DX001 (ip), vehicle: carboxymethylcellulose (CMC)) is 157 % of control; the T/C (dose: 125.0 mg/kg/injection, schedule: Q01DX001 (ip), vehicle: carboxymethylcellulose (CMC)) is 282 % of control; the T/C (dose: 250.0 mg/kg/injection, schedule: Q01DX001 (ip), vehicle: carboxymethylcellulose (CMC)) was 329 % of control.

With `Nc1ccc(Nc2ccc([N+](=O)[O-])cc2)cc1`, the T/C was 91 % of control (dose: 75.0 mg/kg/injection, schedule: Q01DX009 (ip), vehicle: Klucel (hydroxypropylcellulose) (HPC)); 105 % of control (dose: 150.0 mg/kg/injection, schedule: Q01DX009 (ip), vehicle: Klucel (hydroxypropylcellulose) (HPC)); 100 % of control (dose: 300.0 mg/kg/injection, schedule: Q01DX009 (ip), vehicle: Klucel (hydroxypropylcellulose) (HPC)).

Regarding `NC(N)=N/N=C/c1ccc(O)cc1`, the T/C was 104 % of control (dose: 15.0 mg/kg/injection, schedule: Q01DX Z (ip), vehicle: saline); 88 % of control (dose: 30.0 mg/kg/injection, schedule: Q01DX Z (ip), vehicle: saline); 94 % of control (dose: 30.0 mg/kg/injection, schedule: Q01DX Z (oral), vehicle: saline); 95 % of control (dose: 60.0 mg/kg/injection, schedule: Q01DX Z (ip), vehicle: saline); 94 % of control (dose: 60.0 mg/kg/injection, schedule: Q01DX Z (oral), vehicle: saline); 90 % of control (dose: 120.0 mg/kg/injection, schedule: Q01DX Z (oral), vehicle: saline). For the same compound, the T/C (dose: 240.0 mg/kg/injection, schedule: Q01DX Z (oral), vehicle: saline) is 100 % of control.

Take `Nc1cc2ccccc2c(Br)n1`: the T/C by setting is: under setting [3], 110 % of control; (dose: 100.0 mg/kg/injection, schedule: Q01DX009 (ip), vehicle: saline sonified) 98 % of control; under setting [4], 105 % of control; (dose: 200.0 mg/kg/injection, schedule: Q01DX009 (ip), vehicle: saline sonified) 93 % of control; under setting [5], 100 % of control; (dose: 400.0 mg/kg/injection, schedule: Q01DX009 (ip), vehicle: saline sonified) 98 % of control.

Turning to `CC(=O)[S][Pb]([c]1ccccc1)([c]1ccccc1)[c]1ccccc1`, the T/C (dose: 1.0 mg/kg/injection, schedule: Q01DX009 (ip), vehicle: saline) was 93 % of control; the T/C (dose: 2.0 mg/kg/injection, schedule: Q01DX009 (ip), vehicle: saline) is 93 % of control; the T/C (dose: 4.0 mg/kg/injection, schedule: Q01DX009 (ip), vehicle: saline) is 95 % of control and 100 % of control; the T/C (dose: 5.9 mg/kg/injection, schedule: Q01DX009 (ip), vehicle: saline) is 86 % of control.

Consider `COS(=O)(=O)CCC[n+]1ccccc1`, for which the T/C is, setting by setting: (dose: 50.0 mg/kg/injection, schedule: Q01DX001 (ip), vehicle: saline) 98 % of control; under setting [1], 96 % of control; under setting [2], 96 % of control.

On to `CC(=O)Nc1ccc(O)c2ccccc12`, for which the T/C by setting is: (dose: 100.0 mg/kg/injection, schedule: Q04DX002 (ip), vehicle: Klucel (hydroxypropylcellulose) (HPC)) 92 % of control; (dose: 200.0 mg/kg/injection, schedule: Q04DX002 (ip), vehicle: Klucel (hydroxypropylcellulose) (HPC)) 89 % of control; (dose: 400.0 mg/kg/injection, schedule: Q04DX002 (ip), vehicle: Klucel (hydroxypropylcellulose) (HPC)) 99 % of control.
